In the supplement of paper PMC6470124:

Key:
[1] = absolute recovery over mixed-bed multilayer solid-phase extraction; higher = better recovery; conditions: enrichment method: SPE
How it was run: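 Absolute recovery rests on background-corrected response ratios of pre- versus post-spiked samples, averaged over at least two replicates. Wastewater (100–250 mL, pH 6.5, glass-fibre filtered) was spiked at 1000 ng/L and unfiltered nanopure water (1000 mL) at 200 ng/L, before or after three-layer mixed-bed cartridge extraction or not at all, with exceptions for some classes. Analysis after internal standard addition used liquid chromatography with high-resolution tandem mass spectrometry in both ionisation modes.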

[2] = absolute recovery over vacuum-assisted evaporative concentration; higher = better recovery; conditions: enrichment method: VEC
How it was run: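 Standards were spiked into water samples before concentration, after concentration or not at all; volumes were 6 mL influent, 15 mL effluent and 60 mL surface or nanopure water. Spiking levels were 200 ng/L for nanopure and surface water and 1000 ng/L for wastewater, adjusted by class and compound. After evaporation at 55 °C and 20 mbar to about 0.3 mL, samples were brought to 0.4 mL, centrifuged, given internal standards and analysed by LC-HRMS/MS. Absolute recovery equals (response ratio pre − unspiked)/(post − unspiked) × 100, based on averages of ≥ 2 replicates.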

[3] = LC retention time (Atlantis T3, 5-95% MeOH gradient, 0.1% formic acid); higher = more retained / less polar
How it was run: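 Retention times were recorded for reference standards (purity ≥ 95%) on a polar reversed-phase C18 column (Atlantis T3, 3 × 150 mm, 3 μm) at 0.3 mL/min. Elution used water and methanol, each with 0.1% formic acid, in a gradient from 5 to 95% methanol over 17.5 min. Detection was by high-resolution tandem mass spectrometry on a QExactive Plus, with positive and negative electrospray in separate runs. Peaks were found and integrated in TraceFinder (5 ppm tolerance, at least three points per peak) and then checked by hand.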

SMILES | absolute recovery ([1]; nanopure water) [%] | absolute recovery ([1]; surface water) [%] | absolute recovery ([1]; wastewater effluent) [%] | absolute recovery ([1]; wastewater influent) [%] | absolute recovery ([2]; wastewater effluent) [%] | absolute recovery ([2]; wastewater influent) [%] | LC retention time [3] [min]
NC(=O)c1c(Cl)cccc1Cl [2-6-Dichlorbenzamid] | 93.7 | 94.9 | 93.8 | 93.9 | 102 | 107 | 12.7
CC[NH+](CC)CC#CCOC(=O)C(O)(c1ccccc1)C1CCCCC1 (centres undefined) [Oxybutynin] | 92.8 | 75.1 | 89.1 |  | 90.1 | 136 | 16.2
CC1(C)CCC(Cc2ccc(Cl)cc2)C1(O)Cn1cncn1 (centres undefined) [Metconazole] | 95.9 | 108 | 94.9 | 80.9 | 100 | 105 | 21.3
C[NH+]1C2CCC1CC(OC(=O)C(CO)c1ccccc1)C2 (centres undefined) [Atropine] | 94.2 | 93.2 | 90.9 | 91.5 | 106 | 99.7 | 11.1
CC1COC(Cn2cncn2)(c2ccc(Oc3ccc(Cl)cc3)cc2Cl)O1 (centres undefined) [Difenoconazol] | 90.2 | 100 | 102 | 70.9 | 100 | 126 | 21.4
COc1ccc(C(C[NH+](C)C)C2(O)CCCCC2)cc1 (centres undefined) [Venlafaxin] | 95.3 | 96.8 | 93.3 | 99.1 | 106 | 100 | 14
C#CC(C)(C)NC(=O)c1cc(Cl)cc(Cl)c1 [Propyzamide] | 97.1 | 88.9 | 87.8 | 101 | 82 | 88.4 | 20
O=S(=O)([O-])NC1CCCCC1 [Cyclamat] | 95.8 |  | 29 |  | 104 |  | 14.3
CSc1nc(NC(C)C)nc(NC(C)C)n1 [Prometryn G] | 97.7 | 92.8 | 92.4 | 94.1 | 94.8 | 94.8 | 18.2
CCCCC(=O)N(Cc1ccc(-c2ccccc2-c2nnn[n-]2)cc1)C(C(=O)[O-])C(C)C (centres undefined) [Valsartan] | 95.8 | 101 | 91 |  | 103 |  | 19.6
